Patent publication US20260306641A1, “HELICASE DEGRADERS” (priority 2023, published 2026)
pIC50: −log10 of the molar value.

Assays:
[1] = system: Psn1, H460 and 143B tumor lines; experiment: CellTiter-Glo viability, tumor lines; type: cell-based, human
Description: Human keratinocytes (HaCaT; RRID:CVCL_0038), 143B cells (osteosarcoma; RRID:CVCL_2270), and HEK-293T (RRID:CVCL_0063) cells were maintained in Dulbecco's Modified Eagle's Medium (DMEM) supplemented with 10% fetal bovine serum (FBS; Peak Serum, PS-FB-2). Human Psn1 (pancreatic ductal adenocarcinoma; RRID:CVCL_1644) and H460 (non-small cell lung carcinoma; RRID:CVCL_0459) cells were cultured in RPMI-1640 medium supplemented with 10% FBS. HaCaT cells were synchronized in Go using serum starvation for 48 hr and released into the cell cycle by addition of DMEM with 10% FBS (51). Novobiocin (cat #46531) and Courmermycin-A1 (cat #C9270) were obtained from Sigma. Etoposide (cat #S1225) and AT7519 (cat #S1524) were obtained from SelleckChem. All stock solutions of inhibitors were stored at −20° C. as 10 mM suspensions in DMSO.
Cell viability determinations were performed using CellTiter-Glo Assays (Promega; cat #G7572). Cells were seeded in 96-well plates at a density of ~3×10^3 cells/well and treated with drugs for 72 hr, after which the cells were processed for viability using CellTiter-Glo reagent according to the instructions of the manufacturer. Each drug concentration test was performed using four replicates, and results averaged and plotted on graphs, +/−1 s.d.

[2] = system: Dbf4-Cdc7 (DDK); Mcm2 S53 and S139; experiment: Immunoblot of DDK-dependent Mcm2 phosphorylation, HaCaT cells; type: cell-based, human; conditions: extended exposure (18 hrs)
Description: (§1) Immunoblots of total proteins from synchronized HaCaT cells treated with compounds at time of release (0 hr; beginning of G1 phase) and collected after 18 hrs of exposure. (FIG. 5A) DDK-dependent phosphorylation sites on Mcm2 were analyzed with phospho-specific antibodies. (FIG. 5B) Cdk1- and Cdk2-dependent targets (Rb, Cdc6, and PP1α) were analyzed with phospho-specific antibodies.

[3] = system: Cdk1 and Cdk2 targets (Rb, Cdc6, PP1a); experiment: Immunoblot of Cdk1/Cdk2-dependent targets, HaCaT cells; type: cell-based, human; conditions: extended exposure (18 hrs)
Description: as §1

[4] = system: hCMG complexes immunoprecipitated from HaCaT cells; experiment: Co-immunoprecipitation, HaCaT nuclear extract; type: biochemical, human; conditions: 15 μM, 30 min
Description: Nuclear extracts were prepared from synchronized HaCaT cells after releasing into S-phase (at 20 hrs post release) or HEK-293T cells expressing stable Flag-Mcm2 protein (human). Cells from one 10 cm dish were resuspended in […] of Buffer A (10 mM Hepes-KOH pH 7.5, 10 mM KCl, 1.5 mM MgCl2, 0.34 M sucrose, 10% glycerol, protease inhibitors, and 0.1% Triton-X-100) and incubated on ice for 5 min. The nuclear pellet was obtained by centrifugation at 4,000 rpm at 4° C. for 5 min and washed with the Buffer A without Triton X-100. The nuclear extract was obtained by resuspending the nuclear pellet in […] of Buffer A containing 420 mM potassium acetate and 0.01% Triton X-100, and incubating at 4° C. for 1 hr. The final concentration of potassium acetate in nuclear extracts was adjusted to 200 mM for the co-immunoprecipitation assays. For the co-immunoprecipitation assays, […] of indicated antibody [anti-Mcm2, anti-Psf1, or rabbit IgG (Sigma)], or 30 mL of mouse IgG or anti-Flag agarose beads (Sigma), was incubated with […] of nuclear extract at 4° C. for 4 hrs. Protein A/G agarose beads (30 mL, Santa Cruz, sc-2003) were added and incubated for 1 hr with antibodies. Agarose beads were washed once in Buffer A containing 200 mM potassium acetate and 0.01% Triton X-100 and incubated with 15 μM CA1 or DMSO (same concentration as in CA1 sample) for 30 min. Beads were washed in the same buffer and analyzed by immunoblotting with indicated antibodies.

[5] = system: Psn1, H460 and 143B tumor lines; experiment: DNA damage (gamma-H2AX) and apoptosis (cleaved Parp) immunoblot, tumor lines; type: cell-based, human; conditions: 5 μM
Description: (§2) FIGS. 7A-7C depict that CMGi induce DNA damage and selectively reduce tumor cell viability. (FIG. 7A) Cell Titer Glo viability assays for CA1/CMGi sensitivity were performed on 143B (OS), Psn1 (PDAC), and H460 (NSCLC) tumor lines. Novobiocin was tested against 143B cells as a comparison. (FIG. 7B) Immunoblot of chromatin-bound proteins (as indicated) from asynchronous 143B OS cells treated with 10 μM novobiocin or increasing concentrations of CA1 for 24 hrs. (FIG. 7C) Immunoblot of total proteins from Psn1, H460, 143B, and HaCaT cells treated with 5 μM CA1/CMGi or DMSO/novobiocin controls, or HaCaT treated with 15 μM CA1/CMGi (right side). The Psn1 and H460 cells were treated for 24 hrs, and 143B and HaCaT cells were treated for 48 hrs. Probing of blots was done with anti-gamma-H2AX (DNA damage signal) or anti-cleaved-Parp (apoptotic indicator). Anti-GAPDH is a loading control.

HaCaT cells = experiment: DNA damage (gamma-H2AX) and apoptosis (cleaved Parp) immunoblot, HaCaT; type: cell-based, human; conditions: 15 μM, 48 hrs
Description: as §2

DNA Polymerase-theta = conditions: higher doses; cited from earlier work

| Structure (SMILES) | pIC50 ([1]; Homo sapiens, 72 hr, all three tumor lines (Psn1, H460, 143B), read-out: tumor line viability IC50 estimates) | sensitivity of tumor lines relative to HaCaT ([1]; Psn1, H460, 143B vs HaCaT, 4320 min) | Mcm2 S53 and S139 phosphorylation [2] | phosphorylation of Cdk2 targets Rb, Cdc6 (S54P) and Cdk1 target PP1a [3] | Cdc45 association with MCMs ([4]; Mcm2 IP) | MCM complexes ([4]; Mcm2 IP) | Mcm2 and Mcm6 interactions with GINS ([4]; Psf1 IP) | Psf1-3 interactions ([4]; Psf1 IP) | gamma-H2AX and Parp cleavage, tumor lines vs HaCaT [5] | gamma-H2AX and Parp cleavage (HaCaT cells) | DNA Polymerase-theta inhibition (DNA Polymerase-theta) |
| --- | --- | --- | --- | --- | --- | --- | --- | --- | --- | --- | --- |
| CO[C@@H]1[C@@H](OC(=O)c2ccc(C)[nH]2)[C@@H](O)[C@H](Oc2ccc3c(O)c(NC(=O)c4c[nH]c(C(=O)Nc5c(O)c6ccc(O[C@@H]7OC(C)(C)[C@H](OC)[C@@H](OC(=O)c8ccc(C)[nH]8)[C@H]7O)c(C)c6oc5=O)c4C)c(=O)oc3c2C)OC1(C)C [CA1] | 5.40 to 6.00 | 4-10 times | no phosphorylation changes | no effect on these substrates | causes Cdc45 to dissociate from MCMs | does not disrupt MCM complexes | abolished | did not disrupt Psf1-3 interactions | tumor cell-specific increase in DNA damage signals (gamma-H2AX surrogate) and Parp cleavage | HaCaT cells will eventually incur DNA damage and Parp cleavage |  |
| CO[C@@H]1[C@@H](OC(N)=O)[C@@H](O)[C@H](Oc2ccc3c(O)c(NC(=O)c4ccc(O)c(CC=C(C)C)c4)c(=O)oc3c2C)OC1(C)C [novobiocin] |  |  |  |  |  |  |  |  |  |  | can inhibit a different anti-cancer target, DNA Polymerase-theta |
